Reference: patent publication US8765716B2, “Pharmaceutical composition containing docetaxel-cyclodextrin inclusion complex and its preparing process” (Meridian Laboratories, Inc., priority 2006, dated 2014)
Like-named read-outs stand apart in the source and are kept apart here.

Columns and labels:
[1] = Docetaxel stability test in solution (HPLC assay); format: physicochemical; conditions: normal saline solution
Description: (§1) HPLC chromatographic conditions: chromatographic column ODS Cig (250 mm×4.6 mm); mobile phase: water:acetonitrile (53:47); flow rate: 1.0 ml/min; detection wavelength: 230 nm; detection time: 30.00 min; detection sensitivity: 1.0000AUFS.
Under the aforesaid HPLC chromatographic conditions, some docetaxel raw materials; docetaxel/sulfobuty-β-cyclodextrin inclusion (a) with a mass ratio of 1:17 and docetaxel/hydroxypropy-sulfobuty-β-cyclodextrin inclusion (b) with a mass ratio of 1:17 were taken and dissolved with normal saline solution, diluted for 100 times after 30 min ultrasonic wave treatment, placed still, […]

[2] = cited from earlier work
[3] = test system: advanced breast carcinoma; conditions: treatment of advanced breast carcinoma; cited from earlier work
[4] = Solid inclusion stability, 5-day acceleration test (light, high temperature, high humidity), HPLC content; format: physicochemical
Description: as §1
Samples: docetaxel material; docetaxel/sulfobutyl-β-cyclodextrin inclusion (a, mass ratio of 1:17); docetaxel/hydroxypropyl-sulfobutyl-β-cyclodextrin inclusion (b, mass ratio of 1:17). Docetaxel materials and inclusions were divided into three portions of test samples equally and were subject to light, high temperature and high humidity acceleration tests respectively:
Samples were put in a sealed transparent container and then placed in an illumination box equipped with fluorescent light of 4500±500LX illumination intensity for 5 days. Sampling inspection analysis was conducted, and the test results were compared with the samples of 0 day.
Samples were placed in a clean sealed container at a temperature of 60° C. for 5 days. Sampling inspection analysis was conducted, and the test results were compared with the samples of 0 day.
Samples were placed in a sealed container of constant humidity at temperature of 25° C. and relative humidity of 90±5% for 5 days. Sampling inspection analysis was conducted, and the test results were compared with the samples of 0 day.

[5] = Inclusion solubilization test; format: physicochemical; conditions: thermodynamic from solid, docetaxel solubility in pure water, 25° C.
Description: Standard curve: 0.67 mg/ml docetaxel solution was prepared by dissolving docetaxel with ethanol, and diluted with pure water into […]˜20.1 μg/ml series solutions, then UV absorption value A was measured under 228 nm. A standard curve was plotted by A against concentration C (mg/ml) (A=13.881C+0.3577 (r=0.9998)).
The excessive docetaxel or inclusion in the pure water was oscillated for 72 h at 25° C.±1° C., filtered and placed still.

[6] = test system: tubulin; conditions: versus paclitaxel; cited from earlier work

CC(=O)O[C@@]12CO[C@@H]1C[C@H](O)[C@@]1(C)C(=O)[C@H](O)C3=C(C)[C@@H](OC(=O)[C@H](O)[C@@H](NC(=O)OC(C)(C)C)c4ccccc4)C[C@@](O)([C@@H](OC(=O)c4ccccc4)[C@H]21)C3(C)C (relative stereo) [Docetaxel, [2aR-(2aα,4β,4aβ,6β,9α,(αR*,βS*),11α,12α,12aβ,12bα)]-β-[[(1,1-dimethylethoxy)carbonyl]amino]-α-hydroxyphenyl propionic acid [12b-acetoxy-12-benzoyloxy-2a,3,4,4a,5,6,9,10,11,12,12a,12b-dodecahydro-4,6,11-trihydroxyl-4-a,8,13,13-tetramethyl-5-oxo-7,11-methylene-1H-pentacyclo-ene[3,4]benzo[1,2-b]tetraoxacyclo-9-base]acetate trihydrate]
Content (%) 0 h ([1]; diluted 100 times, 0 h): 99.675% | Content (%) 5 h ([1]; diluted 100 times, 5 h): 99.025% | Content (%) 10 h ([1]; diluted 100 times, 10 h): 97.381% | Content (%) 24 h ([1]; diluted 100 times, 24 h): 93.433% | Content (%) 96 h ([1]; diluted 100 times, 96 h): 86.384% | half-life ([1]; in solution, read-out: half-life of sample decomposition in solution (converted)): 15.1 days | incidence rate of moderate and severe hypersusceptibility ([2]; after injection): 25.9% | incidence rate of moderate hypersusceptibility or more ([2]; dosage 75 mg/m^2): 31% | incidence rate of moderate hypersusceptibility or more ([2]; dosage 100 mg/m^2): 41.3% | injection-part reaction rate ([2]; in vivo): up to 13.3% | effective ratio [3]: 49% | Content (%) 0 day ([4]; 0 day): 99.675% | Content (%) Hight humitdity ([4]; 25° C., relative humidity 90±5%, 5 days): 83.877% | Content (%) High temperature ([4]; 60° C., 5 days): 87.859% | Content (%) Light ([4]; 4500±500LX, 5 days): 90.176% | solubility at 72 h [5]: 2.9 µg/mL | inhibitory activity of tubulin depolymerization relative to paclitaxel [6]: about 2 times
